Structures can show the parent of a compound that is named as a salt. Where two headings read alike, the source gives them in different places.
Assays:
PANC-1 = test: In vitro cytotoxicity, CCK-8 assay, PANC-1; type: cell-based; conditions: Homo sapiens, PANC-1, 48 h
Caco-2 = test: In vitro cytotoxicity, CCK-8 assay, Caco-2; type: cell-based; conditions: Homo sapiens, Caco-2, 48 h
[1] = test system: PANC-1 cells (zebrafish pancreatic cancer transplant model); test: In vivo cytotoxicity, zebrafish pancreatic cancer transplant model; conditions: 48 h, n = 10
HCT-8 cells = test: In vitro cytotoxicity, CCK-8 assay, HCT-8; type: cell-based; conditions: Homo sapiens, HCT-8, 48 h
[2] = test system: C. difficile infection (CDI); conditions: cited from earlier work; for recurrence of CDI: patients, after treatment; for response in patients: treatment of mild to moderate episodes of CDI
CD strain ATCC 43255 = test: CDI mouse model (survival, recurrence, weight, clinical scores)

## C=C1/C=C/C(=O)N(C)CC(=O)N[C@@H]([C@H](O)C(N)=O)C(=O)O[C@@H]([C@H](C)CCCCCCCCCCCC(C)CC)[C@H](C)C(=O)N1 (stereo partly shown) [Rakicidin B1]
PANC-1; read-out: IC50 PANC-1, hypoxia (5% CO2, 95% N2), 48 h, CCK-8
  IC50: 486 nM
PANC-1; read-out: IC50 PANC-1, normoxia, 48 h drug exposure, CCK-8
  IC50: 815 nM
Caco-2; read-out: IC50 Caco-2, hypoxia (5% CO2, 95% N2), 48 h, CCK-8
  IC50: 457 nM
Caco-2; read-out: IC50 Caco-2, normoxia, 48 h drug exposure, CCK-8
  IC50: 586 nM
[1]; 22.4 nM in water
  Fluorescence Intensity (S, Mean ± SE): 773,141 ± 49,850
[1]; 67.2 nM in water
  Fluorescence Intensity (S, Mean ± SE): 662,225 ± 41,743
[1]; 201.5 nM in water
  Fluorescence Intensity (S, Mean ± SE): 527,824 ± 34,172
[1]; Danio rerio, PANC-1, 22.4 nM in water, read-out: Inhibition Rate (%)
  inhibition at 0.0224 µM: 17%
[1]; Danio rerio, PANC-1, 67.2 nM in water, read-out: Inhibition Rate (%)
  inhibition at 0.0672 µM: 29%
[1]; Danio rerio, PANC-1, 201.5 nM in water, read-out: Inhibition Rate (%)
  inhibition at 0.2015 µM: 43%
HCT-8 cells; read-out: IC50 HCT-8, hypoxia (5% CO2, 95% N2), 48 h, CCK-8
  IC50: 430 nM
HCT-8 cells; read-out: IC50 HCT-8, normoxia, 48 h drug exposure, CCK-8
  IC50: 519 nM

## Nc1ccn([C@@H]2O[C@H](CO)[C@@H](O)C2(F)F)c(=O)n1 [gemcitabine hydrochloride]
[1]; 66.7 µM in water
  Fluorescence Intensity (S, Mean ± SE): 540,311 ± 59,245 ^1
[1]; Danio rerio, PANC-1, 66.7 µM in water, read-out: Inhibition Rate (%)
  inhibition at 66.7 µM: 42%

## Cc1ncc([N+](=O)[O-])n1CCO [metronidazole]
[2]
  recurrence of CDI: 25–30%
  response in patients: approximately 90%

## CN[C@H](CC(C)C)C(=O)N[C@H]1C(=O)N[C@@H](CC(N)=O)C(=O)N[C@H]2C(=O)N[C@H]3C(=O)N[C@H](C(=O)N[C@H](C(=O)O)c4cc(O)cc(O)c4-c4cc3ccc4O)[C@H](O)c3ccc(c(Cl)c3)Oc3cc2cc(c3O[C@@H]2O[C@H](CO)[C@@H](O)[C@H](O)[C@H]2O[C@H]2C[C@](C)(N)[C@H](O)[C@H](C)O2)Oc2ccc(cc2Cl)[C@H]1O [vancomycin]
[2]
  recurrence of CDI: 25–30%
  response in patients: approximately 90%
CD strain ATCC 43255; C57BL/6 mice, vancomycin 20 mg/kg once a day for seven days, monitored until day 21
  mortality rate after stopping treatment (recurrence of infection): 40%
CD strain ATCC 43255; infected C57BL/6 mice, after seven-day treatment, until day 21
  body weight changes and clinical scores after stopping treatment: significant weight loss and a sharp increase in clinical scores
CD strain ATCC 43255; infected C57BL/6 mice, during seven-day treatment
  body weight changes and clinical scores while receiving treatment: did not experience weight loss or an increase in clinical scores
CD strain ATCC 43255; infected C57BL/6 mice, monitored until day 21
  recurrence of infection after treatment ended: recurrence of infection is observed

From paper PMC10457740, “Design, Synthesis and Biological Evaluation of Novel PEG-Rakicidin B1 Hybrid as Clostridium difficile (CD) Targeted Anti-Bacterial Agent” (Molecules, 2023)
